Data published in US10939684B2, “Preparation of sulfonamide-containing antimicrobials and substrate treating compositions of sulfonamide-containing antimicrobials” (NANO SAFE COATINGS INCORPORATED, priority 2015, dated 2021).
Entries after “also recorded” stand apart in the source; their conditions may differ.

Tests used:
Type in all cases: cell-based
Arthrobacter spp. = assay: Large-droplet inoculation method, antimicrobial efficacy at solid-air interfaces; settings: treated polystyrene; for Average / A (cfu) / B (cfu) / C (cfu): load 1.28E+08; for Average: average of A-C; for A (cfu): replicate A; for B (cfu): replicate B; for C (cfu): replicate C
Text: (§1) Large-droplet inoculation method (Ronan E. et al, Biofouling 2013, 29, 1087-1096) Many pathogens are able to remain viable during extended periods of desiccation on inanimate surfaces. Long-term survival of pathogens in the inanimate environment pose a significant risk for infection transmission and contamination in high-risk environments such as hospital rooms or food-processing plants. The large-droplet inoculation method was developed to simulate the deposition of bacterial species onto exposed surfaces and to determine the ability of these cells to survive desiccation.
(§2) For these tests, small surface coupons were first coated with the antimicrobial using the method described above. Bacterial test species were grown overnight in a shaking incubator and cultures
(§3) were washed twice to replace the growth media with sterile water. 100 μL aliquots of the prepared culture were then inoculated onto multiple coated surfaces and allowed to air-dry within a biological safety cabinet. Drying typically occurred 2-3 hours after inoculation, and surviving cells were enumerated immediately and 24 hours after drying. For enumeration, inoculated coupons were sacrificed in triplicate and placed inside separate tubes containing 5 mL of a 0.9% saline collection liquid. Each coupon was agitated vigorously for 1 minute with a bench-top vortex to transfer cells from the test surface to the collection liquid. Plate counts were then performed on serial dilutions of the collection liquid, and colony counts from triplicate treated surfaces were averaged and compared to colony counts from tests of untreated control surfaces carried out in parallel.
(§4) A range of bacterial species were used in these tests. Arthrobacter spp., a gram-positive lab strain originally isolated from indoor air was used in the bulk of the testing, as it is known to be highly resistant to desiccation and therefore was used as a model for desiccation-tolerant pathogens. Efficacy tests were also carried out against, for example, gram-negative Escherichia coli (E. coli) and gram-positive Staphylococcus aureus (S. aureus), since they all contain pathogenic strains and have been implicated in major nosocomial outbreaks. […] The following are the tabulated bacterial reduction data: […]

[1] = test system: Escherichia coli (E. coli); assay: as above; settings: for Average / A (cfu) / B (cfu) / C (cfu): E. coli, treated polyethylene, load 5.05E+07; for Average: average of A-C; for A (cfu): replicate A; for B (cfu): replicate B; for C (cfu): replicate C; for activity against E. coli (in words): treated polyethylene coupons, compared to untreated control (FIG. 6)
Text: as §1, §2, §3, §4

[2] = test system: Staphylococcus aureus (S. aureus); assay: as above; settings: for Average / A (cfu) / B (cfu) / C (cfu): S. aureus, treated polyethylene, load 8.30E+05; for Average: average of A-C; for A (cfu): replicate A; for B (cfu): replicate B; for C (cfu): replicate C; for activity against S. aureus (in words): treated polyethylene coupons, compared to untreated control (FIG. 6)
Text: as §1, §2, §3, §4

[3] = test system: Arthrobacter spp. planktonic cells; assay: Static biofilm test in coated polyethylene test tubes, planktonic cell survival; settings: 48 hours; for Average / A (cfu) / B (cfu) / C (cfu): planktonic cells; for Average: average of A-C; for A (cfu): replicate A; for B (cfu): replicate B; for C (cfu): replicate C; for activity against planktonic cells (in words): initial test and re-challenge (FIG. 9)
Description: (§5) The interior of polyethylene test tubes was coated with the sulfonamide QUAT antimicrobial similarly as in Example 32. Tubes were filled with 2.7 mL of growth media (3 g/L TSB) into which 300 μL of Arthrobacter spp. bacterial culture was inoculated. Planktonic cells were sampled after 48 hours of incubation and agitation by removing 100 μL aliquots from each tube. After 48 hours, the liquid in each tube was removed completely so that biofilm attachment to the interior of the tubes could be assessed. To test for biofilm attachment the tubes were first gently rinsed in a saline solution to remove any loosely attached or residual planktonic cells. Next, 1 mL of saline solution was added to each tube before the tubes were vortexed vigorously for 1 minute to transfer biofilm cells to the collection liquid. Plate counts were then performed on serial dilutions of this collection liquid. Planktonic and biofilm colony counts from triplicate coated tubes were averaged and compared to colony counts from tests of uncoated control tubes carried out in parallel. After 14 days of exposure to ambient air, the tubes used in the above test were subjected to a second static biofilm test as described above, without reapplying the antimicrobial. This test was performed to determine whether the antimicrobial effects of the coating persisted following repeated exposures.

[4] = test system: Arthrobacter spp. biofilm cells; assay: Static biofilm test in coated polyethylene test tubes, biofilm cell survival; settings: for Average / A (cfu) / B (cfu) / C (cfu): biofilm cells, 48 hours; for Average: average of A-C; for A (cfu): replicate A; for B (cfu): replicate B; for C (cfu): replicate C
Description: as §5

[5] = listed as 3-(4-benzoylphenoxy)-N,N-dimethyl-N-(3-(2,4,6-trimethylphenyl sulfonamido)propyl)
[6] = listed as 3-(4-benzoylphenoxy)-N,N-dimethyl-N-(3-(2,4,6-trimethylphenylsulfonamido)propyl)
[7] = initial test, treated polyethylene test tubes, load 7.75E+08
[8] = rechallenge after 14 days without reapplying, load 8.00E+08

Cc1cc(C)c(S(=O)(=O)NCCC[N+](C)(C)CCCOc2ccc(C(=O)c3ccccc3)cc2)c(C)c1.[Br-] [Example 3c, 3-(4-benzoylphenoxy)-N,N-dimethyl-N-(3-(2,4,6-trimethylphenylsulfonamido)propyl)propan-1-aminium bromide]
activity against Arthrobacter spp. (in words) (Arthrobacter spp.; compared to untreated control (FIG. 3)): eradicated within three hours; also recorded: excellent activity | Average (Arthrobacter spp.; 3 hours): 0.00E+00 cfu | A (cfu) (Arthrobacter spp.; 3 hours): 0.00E+00 cfu | B (cfu) (Arthrobacter spp.; 3 hours): 0.00E+00 cfu | C (cfu) (Arthrobacter spp.; 3 hours): 0.00E+00 cfu | Average (Arthrobacter spp.; 24 hours): 0.00E+00 cfu | A (cfu) (Arthrobacter spp.; 24 hours): 0.00E+00 cfu | B (cfu) (Arthrobacter spp.; 24 hours): 0.00E+00 cfu | C (cfu) (Arthrobacter spp.; 24 hours): 0.00E+00 cfu | Average ([1]; 3 hours): 0.00E+00 cfu | A (cfu) ([1]; 3 hours): 0.00E+00 cfu | B (cfu) ([1]; 3 hours): 0.00E+00 cfu | C (cfu) ([1]; 3 hours): 0.00E+00 cfu | Average ([1]; 24 hours): 0.00E+00 cfu | A (cfu) ([1]; 24 hours): 0.00E+00 cfu | B (cfu) ([1]; 24 hours): 0.00E+00 cfu | C (cfu) ([1]; 24 hours): 0.00E+00 cfu | activity against E. coli (in words) [1, 5]: excellent activity | activity against E. coli (in words) [1, 6]: eradicated within three hours | Average ([2]; 3 hours): 0.00E+00 cfu | A (cfu) ([2]; 3 hours): 0.00E+00 cfu | B (cfu) ([2]; 3 hours): 0.00E+00 cfu | C (cfu) ([2]; 3 hours): 0.00E+00 cfu | Average ([2]; 24 hours): 0.00E+00 cfu | A (cfu) ([2]; 24 hours): 0.00E+00 cfu | B (cfu) ([2]; 24 hours): 0.00E+00 cfu | C (cfu) ([2]; 24 hours): 0.00E+00 cfu | activity against S. aureus (in words) [2, 5]: excellent activity | activity against S. aureus (in words) [2, 6]: eradicated within three hours | Average [3, 7]: 0.00E+00 cfu | A (cfu) [3, 7]: 0.00E+00 cfu | B (cfu) [3, 7]: 0.00E+00 cfu | C (cfu) [3, 7]: 0.00E+00 cfu | Average [3, 8]: 0.00E+00 cfu | A (cfu) [3, 8]: 0.00E+00 cfu | B (cfu) [3, 8]: 0.00E+00 cfu | C (cfu) [3, 8]: 0.00E+00 cfu | activity against planktonic cells (in words) ([3]; treated polyethylene test tubes, listed as 3-(4-benzoylphenoxy)-N,N-dimethyl-N-(3-(2,4,6-trimethylphenyl sulfonamido)propyl)): excellent activity | activity against planktonic cells (in words) ([3]; treated polyethylene test tubes, listed as 3-(4-benzoylphenoxy)-N,N-dimethyl-N-(3-(2,4,6-trimethylphenylsulfonamido)propyl)): complete eradication | Average [4, 7]: 0.00E+00 cfu | A (cfu) [4, 7]: 0.00E+00 cfu | B (cfu) [4, 7]: 0.00E+00 cfu | C (cfu) [4, 7]: 0.00E+00 cfu | Average [4, 8]: 0.00E+00 cfu | A (cfu) [4, 8]: 0.00E+00 cfu | B (cfu) [4, 8]: 0.00E+00 cfu | C (cfu) [4, 8]: 0.00E+00 cfu | activity against biofilm cells / biofilm development (in words) ([4]; treated polyethylene test tubes, 48 hours (FIG. 10)): excellent activity
